The NIST ThermoML archive (doi:10.1016/j.jct.2004.12.008)
Numbers after ± are expanded uncertainties.

Experiment: xn = mol fraction of the nth substance listed
Details: 101 kPa, Liquid

O=[N+]([O-])c1ccccc1 [nitrobenzene] + CCc1ccccc1
Details	mass density [kg/m3]
293.15 K, x2 = 0	1202.95 ± 18
293.15 K, x2 = 0.0478	1184.56 ± 17
293.15 K, x2 = 0.1275	1154.51 ± 15
293.15 K, x2 = 0.1842	1133.58 ± 14
293.15 K, x2 = 0.2576	1107.04 ± 12
293.15 K, x2 = 0.3238	1083.6 ± 11
293.15 K, x2 = 0.4023	1056.42 ± 8.8
293.15 K, x2 = 0.4578	1037.57 ± 7.6
293.15 K, x2 = 0.5139	1018.83 ± 6.4
293.15 K, x2 = 0.5813	996.7 ± 5.5
293.15 K, x2 = 0.6423	977.03 ± 6.7
293.15 K, x2 = 0.6931	960.9 ± 7.8
293.15 K, x2 = 0.7592	940.24 ± 9.1
293.15 K, x2 = 0.8343	917.18 ± 11
293.15 K, x2 = 0.8824	902.65 ± 12
293.15 K, x2 = 0.9587	879.94 ± 13
303.15 K, x2 = 0	1193.56 ± 18
303.15 K, x2 = 0.054	1172.67 ± 16
303.15 K, x2 = 0.1213	1147.16 ± 15
303.15 K, x2 = 0.1983	1118.67 ± 13
303.15 K, x2 = 0.2489	1100.34 ± 12
303.15 K, x2 = 0.3138	1077.25 ± 10
303.15 K, x2 = 0.3854	1052.32 ± 8.6
303.15 K, x2 = 0.4428	1032.74 ± 7.3
303.15 K, x2 = 0.5098	1010.3 ± 5.9
303.15 K, x2 = 0.5721	989.85 ± 5.9
303.15 K, x2 = 0.6219	973.76 ± 6.9
303.15 K, x2 = 0.6839	954.06 ± 8.2
303.15 K, x2 = 0.7429	935.62 ± 9.4
303.15 K, x2 = 0.8013	917.67 ± 11
303.15 K, x2 = 0.8632	898.94 ± 12
303.15 K, x2 = 0.9328	878.24 ± 13
313.15 K, x2 = 0	1183.37 ± 17
313.15 K, x2 = 0.0538	1162.71 ± 16
313.15 K, x2 = 0.1387	1130.89 ± 14
313.15 K, x2 = 0.1932	1110.93 ± 12
313.15 K, x2 = 0.2378	1094.87 ± 11
313.15 K, x2 = 0.2947	1074.72 ± 10
313.15 K, x2 = 0.3571	1053.04 ± 8.6
313.15 K, x2 = 0.4139	1033.68 ± 7.4
313.15 K, x2 = 0.4917	1007.73 ± 5.7
313.15 K, x2 = 0.5523	987.93 ± 6
313.15 K, x2 = 0.6139	968.18 ± 7.3
313.15 K, x2 = 0.6731	949.53 ± 8.5
313.15 K, x2 = 0.7248	933.5 ± 9.6
313.15 K, x2 = 0.7932	912.63 ± 11
313.15 K, x2 = 0.8536	894.54 ± 12
313.15 K, x2 = 0.9248	873.58 ± 13
323.15 K, x2 = 0	1172.38 ± 16
323.15 K, x2 = 0.0617	1149.22 ± 15
323.15 K, x2 = 0.1482	1117.58 ± 13
323.15 K, x2 = 0.2213	1091.54 ± 11
323.15 K, x2 = 0.2787	1071.53 ± 9.8
323.15 K, x2 = 0.3234	1056.2 ± 8.8
323.15 K, x2 = 0.3781	1037.74 ± 7.6
323.15 K, x2 = 0.4344	1019.07 ± 6.4
323.15 K, x2 = 0.4822	1003.47 ± 5.4
323.15 K, x2 = 0.5339	986.86 ± 6.1
323.15 K, x2 = 0.592	968.49 ± 7.3
323.15 K, x2 = 0.6739	943.12 ± 8.9
323.15 K, x2 = 0.7429	922.2 ± 10
323.15 K, x2 = 0.8137	901.15 ± 12
323.15 K, x2 = 0.8735	883.68 ± 13
323.15 K, x2 = 0.9572	859.66 ± 14
333.15 K, x2 = 0	1160.59 ± 16
333.15 K, x2 = 0.0439	1144.65 ± 14
333.15 K, x2 = 0.1249	1115.84 ± 13
333.15 K, x2 = 0.1892	1093.51 ± 11
333.15 K, x2 = 0.2599	1069.48 ± 9.7
333.15 K, x2 = 0.3389	1043.25 ± 8
333.15 K, x2 = 0.4042	1022.06 ± 6.6
333.15 K, x2 = 0.4672	1002.01 ± 5.3
333.15 K, x2 = 0.5243	984.15 ± 6.2
333.15 K, x2 = 0.5902	963.91 ± 7.6
333.15 K, x2 = 0.6645	941.54 ± 9
333.15 K, x2 = 0.7309	921.93 ± 10
333.15 K, x2 = 0.8021	901.28 ± 12
333.15 K, x2 = 0.8623	884.12 ± 13
333.15 K, x2 = 0.8932	875.4 ± 13
333.15 K, x2 = 0.9621	856.21 ± 15
343.15 K, x2 = 0	1148 ± 15
343.15 K, x2 = 0.0535	1129.57 ± 14
343.15 K, x2 = 0.1122	1109.7 ± 12
343.15 K, x2 = 0.1834	1086.08 ± 11
343.15 K, x2 = 0.2478	1065.16 ± 9.4
343.15 K, x2 = 0.3044	1047.11 ± 8.2
343.15 K, x2 = 0.3782	1024 ± 6.8
343.15 K, x2 = 0.4519	1001.42 ± 5.3
343.15 K, x2 = 0.513	983.04 ± 6.3
343.15 K, x2 = 0.5801	963.22 ± 7.6
343.15 K, x2 = 0.6529	942.11 ± 9
343.15 K, x2 = 0.7238	921.93 ± 10
343.15 K, x2 = 0.7932	902.5 ± 12
343.15 K, x2 = 0.852	886.31 ± 13
343.15 K, x2 = 0.8932	875.09 ± 13
343.15 K, x2 = 0.9423	861.85 ± 14
353.15 K, x2 = 0	1134.61 ± 14
353.15 K, x2 = 0.0723	1111.4 ± 12
353.15 K, x2 = 0.1298	1093.3 ± 11
353.15 K, x2 = 0.1984	1072.07 ± 9.8
353.15 K, x2 = 0.2584	1053.83 ± 8.7
353.15 K, x2 = 0.3133	1037.4 ± 7.6
353.15 K, x2 = 0.3891	1015.12 ± 6.2
353.15 K, x2 = 0.4501	997.51 ± 5.4
353.15 K, x2 = 0.524	976.53 ± 6.8
353.15 K, x2 = 0.5818	960.38 ± 7.8
353.15 K, x2 = 0.663	938.08 ± 9.3
353.15 K, x2 = 0.7483	915.1 ± 11
353.15 K, x2 = 0.7964	902.32 ± 12
353.15 K, x2 = 0.8423	890.26 ± 12
353.15 K, x2 = 0.8893	878.02 ± 13
353.15 K, x2 = 0.9529	861.65 ± 14
